Laboratory results reported in patent US20070041904A1, “Peptides whose uptake by cells is controllable” (priority 2003, published 2007).

Experiments:
Jurkat cells [1] = experiment: 99mTc-labeled ACPP uptake into Jurkat cells, gamma counting; type: cell-based, human; settings: for increase in cell-associated radioactivity after cleavage: MMP-9 cleaved vs intact
Procedure: ACPPs may be used to deliver radioactive cargo to target cells and tissues. […] Spiked with 0.25 mCi Tc label, 25 nM intact or cleaved substrate. The target Jurkat cells were incubated with the peptides for 30 min at 37° C., and then washed 3 times with HBSS (HEPES-buffered saline solution) at room temperature (RT). 20 hours later, cells were counted by Gamma counter.
Spiked (4%) with 60 μCi ^99mTc-labeled peptide, the target Jurkat cells were loaded with 2 μM intact or MMP-9-cleaved peptide at 37° C. for 30 min. Then, the cells were washed with RT HBSS 3 times, and counted (Gamma counter) 20 hours later.
The use of ACPP labeled with technetium-99m (^99mTc) as described in Example 19 can be extended for use as an imaging agent for mouse models of cancer. One obvious advantage of gamma scintigraphy as compared to fluorescent imaging is that gamma imaging reaches much deeper into tissue. As described above, various carrier-conjugated ACPPs that incorporate N-epsilon-bis(2-pyridylmethyl)lysine (DPK), a high-affinity chelator for technetium tricarbonyl, Tc(CO)3, have been prepared. […] The simplest of these compounds, (11 KDa-mPEG)-e9-XPLGLAG-r9-[DPK-^99mTc(CO)3] was first tested on isolated cultured cells. (Note: X denotes a 6-aminohexanoyl spacer, and lower case letters denote D-amino acids.) Before cleavage, the uptake of this CPP into Jurkat lymphocytes was only 1.9% of the positive control CPP, r9-[DPK-^99mTc(CO)3].

Jurkat cells [2] = experiment: Gd-labeled ACPP uptake into Jurkat cells, ICP-MS; type: cell-based, human
Procedure: Gadolinium chloride (GdCl3) is used to add gadolinium (Gd) to provide a contrast-enhancing, PEGylated ACPP mPEG-S—CH2CONH-e9-ahx-PLGLAG-r9-K[DOTA(Gd)]-CONH2 (SEQ ID NO: 75). It will be understood that in other embodiments the ACPP need not include a PEG moiety, and may include other moieties as well. […] Jurkat cells were incubated with 8 μM of the intact or of the cleaved substrate at 37° C. for 30 min; then the cells were washed four times with RT HBSS. Gd concentration was determined by ICP-MS (inductively coupled plasma mass spectroscopy). Cleavage led to a 19-fold increase in uptake by target cells.
Three ACPPs carrying Gd^3+ were synthesized: (11-KDa-mPEG)-e9-XPLGLAG-r9-K(DOTA-Gd), Suc9-(70 KDa dextran)-e9-XPLGLAG-r9-K(DOTA-Gd), and Suc9-(70 KDa dextran)-e9-XPLGLAX-r9-K(DOTA-Gd). The first of these ACCPs was tested at 8 μM on isolated Jurkat lymphocytes. Gd^3+ uptake was measured by inductively coupled plasma mass spectroscopy. […] Thus, MMP-mediated cleavage of the test peptide increased uptake by a factor of 19-fold […].

[3] = Phage display selection, all screens
Procedure: (§1) In-vivo selections were performed by injection of phage libraries into mice either containing tumor xenografts (HT1080 cells) or mammary tumors in transgenic mice (MMTV-PyMT). Tumor tissues were removed 3-24 hrs after injection. The rescued phage were re-amplified in bacteria and reinjected into another mouse for up to 7 iterative cycles of selection. Representative phage were isolated at each round and sequenced to monitor the selection process.
(§2) In-vitro selection strategies involved screening for phage that are specifically cleaved by purified enzymes or tissue extracts associated with tumor tissue while also selecting against cleavage by enzymes and extracts associated with normal tissue. […] The inventors have employed two different in-vitro selection paradigms. In the initial selection, the 2.5×10^6 diversity M13 library was treated with the kidney proteases meprin and neprilysin for 3 hours. Ni-NTA agarose (Qiagen) was then added and allowed to bind to the phage for 5-15 minutes, then the Ni-NTA agarose carrying the phage was resuspended with MMP-9 and incubated at 37 for 2-3 hours. After removing the beads by centrifugation, phage released into the supernatant were plated with fresh bacteria. This procedure selects for phage that remain uncleaved by kidney proteases but are then released by MMP-9. This procedure was repeated for as many as six rounds with representative phage being isolated and sequenced to monitor the selection process. The same selection procedure was also performed with liver/kidney extract instead of meprin/neprilysin and tumor extract instead of MMP-9. The resulting sequences are tabulated below. The most promising peptides were chemically resynthesized with flanking e9 and r9 sequences and a C-terminal fluorescein tag. They were then assayed by tricine gel electrophoresis for cleavage by tumor, liver, kidney extracts and MMP-9.

[4] = test system: neprilysin / meprin / MMP-9; experiment: In-vitro phage selection, Nep/Mep/MMP-9
Procedure: as §2

furin = experiment: Furin inhibition assay; type: biochemical
furin, sequence (P09958 108-576 limits assumed): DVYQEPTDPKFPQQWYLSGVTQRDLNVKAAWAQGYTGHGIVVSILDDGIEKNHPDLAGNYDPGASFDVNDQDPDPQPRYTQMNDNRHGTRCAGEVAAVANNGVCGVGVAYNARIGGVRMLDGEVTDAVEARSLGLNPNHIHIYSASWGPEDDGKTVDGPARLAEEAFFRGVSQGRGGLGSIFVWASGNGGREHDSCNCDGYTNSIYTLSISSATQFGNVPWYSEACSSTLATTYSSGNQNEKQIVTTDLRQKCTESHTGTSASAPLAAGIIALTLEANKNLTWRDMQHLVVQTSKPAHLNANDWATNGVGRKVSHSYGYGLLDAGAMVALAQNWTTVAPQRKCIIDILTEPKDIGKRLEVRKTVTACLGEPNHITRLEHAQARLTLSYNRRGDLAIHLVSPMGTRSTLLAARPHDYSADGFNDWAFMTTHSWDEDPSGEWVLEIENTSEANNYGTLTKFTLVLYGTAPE
Procedure: The furin assay was performed with Boc-Arg-Val-Arg-Arg-MCA substrate (Bachem) at a final concentration of 200 μM in 100 μl of 100 mM MES/NaOH, pH 7.0, containing 1 mM CaCl2. Inhibitory peptides were pre-incubated with 1 unit furin enzyme (NEB) for 30 min prior to addition of substrate. Assays were performed in triplicate by incubation at 37° C. for 4 hours in a 96-well clear-bottom black-wall Costar plate. Release of MCA was measured by excitation at 380 nm and emission at 460 nm. IC50's were determined as the concentration of inhibitor required to inhibit 50% of the emission increase at 460 nm over the no-enzyme control. […]

[5] = In-vitro phage selection, liver/kidney/tumor extracts
Procedure: as §2

MMP-2 = experiment: Cleavage kinetics for MMP-2 cleavage; type: biochemical
Excerpt: Cleavage kinetics for MMP-2 cleavage of H2N-e6-XPLGLAG-r9-Xc(Cy5)-CONH2 (where X≡aminohexanoic acid) are illustrated in FIG. 27.
Cleavage of a MMP-2 substrate ACPP is illustrated in FIG. 27.

[6] = test system: HT1080 tumor xenografts or mammary tumors (MMTV-PyMT); experiment: In-vivo phage selection; design: species or system mice; settings: mouse
Procedure: as §1

HT-1080 tumors = experiment: In vivo fluorescence imaging of HT-1080 tumor xenografts; design: species or system nude mice; settings: mean±SE
Procedure: Xenografts in Mice. Nude mice (age, 4-6 weeks) were injected s.c. with ≈10^6 HT-1080 cells. […] Animals were then imaged at various times by using a Nikon f/1.2 camera lens in front of a cooled charge-coupled device camera (SenSys, Photometrics, Tucson, Ariz.). For longer lasting imaging studies, animals were allowed to wake up after 2 h of anesthesia and were reanesthetized at ≈4 and 6 hr for further data collection. […] After imaging was ended, animals were killed with halothane, and organs of interest were harvested and weighed. […] Cy5 fluorescence was imaged as described above.
We next tested whether ACPPs could light up protease expressing human tumor xenografts in whole mice. We chose HT-1080 tumors in the axilla of nude mice because these tumors express both MMP-2 and MMP-9 and have been used to test other MMP-2 cleavable contrast agents (22, 26). […] Anesthetized mice were injected through the tail vein with either an MMP-2 cleavable ACPP, an isomeric scrambled version verified not to be a substrate for MMP-2 or MMP-9, or an all-D-amino acid version. […] To quantitate the results, we measured the contrast index defined as (fluorescence intensity of tumor−autofluorescence)/(fluorescence of normal contralateral region−autofluorescence).

Substance | Total # times isolated [3] | # times identified in Nep/Mep/MMP-9 screen [4] | other results
(11 KDa-mPEG)-e9-XPLGLAG-r9-[DPK-^99mTc(CO)3] |  |  | increase in cell-associated radioactivity after cleavage (Jurkat cells [1]): 57 -fold; uptake after cleavage, % of positive control (Jurkat cells [1]; after MMP-9): 107%; uptake before cleavage, % of positive control CPP (Jurkat cells [1]; positive control r9-[DPK-99mTc(CO)3]): 1.9%
(11-KDa-mPEG)-e9-XPLGLAG-r9-K(DOTA-Gd) |  |  | increase in Gd uptake after cleavage (Jurkat cells [2]; 8 μM): 19 -fold; Gd3+ uptake, MMP-9-cleaved peptide (Jurkat cells [2]; 8 μM, ICP-MS): 737 µM; Gd3+ uptake, intact peptide (Jurkat cells [2]; 8 μM, ICP-MS): 39 µM
ARKRSQ | 2 | 2 | 
Ac-r9-k-NH2 [reference compound] |  |  | IC50 (furin; intact / uncleaved peptide): 3.4 µM
DSNAES | 4 | 3 | # times identified in liver/kidney/tumor screen [5]: 1
DVGTTE | 5 | 5 | 
FMEIET | 3 | 3 | 
GGHTRQ | 2 | 2 | 
GLWQGP | 7 |  | # times identified in liver/kidney/tumor screen [5]: 7
GMMYRS | 4 | 1 | # times identified in liver/kidney/tumor screen [5]: 3
H2N-e6-XPLGLAG-r9-Xc(Cy5)-CONH2 |  |  | Km (MMP-2): 534 µM; kcat (MMP-2): 15.0 s⁻¹; kcat/Km (MMP-2): 28,037 M^−1s^−1
HEVVAG | 2 | 2 | 
IDKQLE | 3 | 3 | 
INGKVT | 2 | 2 | 
ITDMAA | 4 |  | # times identified in in-vivo screen [6]: 1; # times identified in liver/kidney/tumor screen [5]: 3
LPGMMG | 5 |  | # times identified in liver/kidney/tumor screen [5]: 5

Substance | Total # times isolated [3] | # times identified in Nep/Mep/MMP-9 screen [4] | other results
QCTGRF | 6 | 1 | # times identified in in-vivo screen [6]: 1; # times identified in liver/kidney/tumor screen [5]: 4
RLQLKL | 12 |  | # times identified in in-vivo screen [6]: 1; # times identified in liver/kidney/tumor screen [5]: 11
RWRTNF | 4 | 4 | 
TDLGAM | 5 |  | # times identified in liver/kidney/tumor screen [5]: 5
TSAVRT | 2 |  | # times identified in in-vivo screen [6]: 2
WRNTIA | 3 | 3 | 
WRPCES | 3 | 2 | # times identified in in-vivo screen [6]: 1
[11 kDa PEG]-X-e9-XPLG*LAG-r9 [cleavable ACPP] |  |  | contrast index (tumor−autofluorescence)/(normal contralateral−autofluorescence) (HT-1080 tumors): 2.1±0.17
[11 kDaPEG]-X-e9-XLALGPG-r9 [scrambled isomer] |  |  | contrast index (tumor−autofluorescence)/(normal contralateral−autofluorescence) (HT-1080 tumors): 1.3±0.16
[11-kDa PEG]-X-e9-Xplglag-r9-Xk(Cy5) [all-D-amino acid control] |  |  | contrast index (tumor−autofluorescence)/(normal contralateral−autofluorescence) (HT-1080 tumors): 1.5±0.11
decanoyl-RVKR-chloromethylketone [reference compound] |  |  | IC50 (furin; control inhibitor): 0.027 µM
e9-XPLGLAG-r9-Xk-NH2 |  |  | IC50 (furin; intact / uncleaved peptide): 27 µM
mPEG(11 kd)-S—CH2—CONH-ahx-e9-ahx-PLGLAG-r9-ahx-k-CONH2 |  |  | increase in cell-associated radioactivity after cleavage (Jurkat cells [1]): 38 -fold
mPEG(11kd)-e9-XPLGLAG-r9-Xk-NH2 |  |  | IC50 (furin; intact / uncleaved peptide): > 50 µM
mPEG-S—CH2CONH-e9-ahx-PLGLAG-r9-K[DOTA(Gd)]-CONH2 |  |  | increase in Gd uptake after cleavage (Jurkat cells [2]; 8 μM): 19 -fold
r9-K(DOTA-Gd) [reference compound] |  |  | Gd3+ uptake, positive control CPP (Jurkat cells [2]; ICP-MS): 504 µM
